Reference: PMC10364322, “Evaluation of chronic drug-induced electrophysiological and cytotoxic effects using human-induced pluripotent stem cell-derived cardiomyocytes (hiPSC-CMs)” (Frontiers in Pharmacology, 2023)
Where two headings read alike, the source gives them in different places.

System: hiPSC-CMs (iCell-Cardiomyocytes^2)
In short: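 Spontaneous field potentials and impedance recorded by MEA at 37°C, 5% CO2 in hiPSC-CM monolayers (50 K/well, fibronectin-coated), 5-min baseline before compound; final DMSO 0.1%. Values are percent change from baseline, mean ± SD, compared with DMSO by Wilcoxon-Mann Whitney, interpreted against DMSO tolerance intervals.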

CC(C)(Sc1cc(C(C)(C)C)c(O)c(C(C)(C)C)c1)Sc1cc(C(C)(C)C)c(O)c(C(C)(C)C)c1 [Probucol]
BR (beating rate), % change from baseline (0.3 µM, 2h): 0±1%
Beating below threshold, number of observations/total well numbers (0.3 µM, 2h): 0/5
Cessation of beating, number of observations/total well numbers (0.3 µM, 2h): 0/5
EAD, number of observations/total well numbers (0.3 µM, 2h): 0/5
FPD (field-potential duration), % change from baseline (0.3 µM, 2h): 2.5±1.9%
FPDc (field-potential duration corrected by beat-rate), % change from baseline (0.3 µM, 2h): 2.6±1.7%
Flat T-wave-like, number of observations/total well numbers (0.3 µM, 2h): 0/5
BR (beating rate), % change from baseline (0.3 µM, 24h): 4±2%
Beating below threshold, number of observations/total well numbers (0.3 µM, 24h): 0/5
Cessation of beating, number of observations/total well numbers (0.3 µM, 24h): 0/5
EAD, number of observations/total well numbers (0.3 µM, 24h): 0/5
FPD (field-potential duration), % change from baseline (0.3 µM, 24h): 2.5±6.9%
FPDc (field-potential duration corrected by beat-rate), % change from baseline (0.3 µM, 24h): 3.8±6.8%
Flat T-wave-like, number of observations/total well numbers (0.3 µM, 24h): 1/5
BR (beating rate), % change from baseline (0.3 µM, 48h): -1±1%
Beating below threshold, number of observations/total well numbers (0.3 µM, 48h): 0/5
Cessation of beating, number of observations/total well numbers (0.3 µM, 48h): 0/5
EAD, number of observations/total well numbers (0.3 µM, 48h): 0/5
FPD (field-potential duration), % change from baseline (0.3 µM, 48h): 5.1±4.5%
FPDc (field-potential duration corrected by beat-rate), % change from baseline (0.3 µM, 48h): 4.5±4.4%
Flat T-wave-like, number of observations/total well numbers (0.3 µM, 48h): 0/5
BR (beating rate), % change from baseline (0.3 µM, 72h): -6±3%
Beating below threshold, number of observations/total well numbers (0.3 µM, 72h): 0/5
Cessation of beating, number of observations/total well numbers (0.3 µM, 72h): 0/5
EAD, number of observations/total well numbers (0.3 µM, 72h): 0/5
FPD (field-potential duration), % change from baseline (0.3 µM, 72h): 1.8±4.6%
FPDc (field-potential duration corrected by beat-rate), % change from baseline (0.3 µM, 72h): -0.2±4.7%
Flat T-wave-like, number of observations/total well numbers (0.3 µM, 72h): 0/5
BR (beating rate), % change from baseline (0.3 µM, 96h): 0±7%
Beating below threshold, number of observations/total well numbers (0.3 µM, 96h): 0/5
Cessation of beating, number of observations/total well numbers (0.3 µM, 96h): 0/5
EAD, number of observations/total well numbers (0.3 µM, 96h): 0/5
FPD (field-potential duration), % change from baseline (0.3 µM, 96h): 2.4±5.7%
FPDc (field-potential duration corrected by beat-rate), % change from baseline (0.3 µM, 96h): 2.7±6.2%
Flat T-wave-like, number of observations/total well numbers (0.3 µM, 96h): 0/5
BR (beating rate), % change from baseline (1 µM, 2h): 0±1%
Beating below threshold, number of observations/total well numbers (1 µM, 2h): 0/4
Cessation of beating, number of observations/total well numbers (1 µM, 2h): 0/4
EAD, number of observations/total well numbers (1 µM, 2h): 0/4
FPD (field-potential duration), % change from baseline (1 µM, 2h): 0.8±4.5%
FPDc (field-potential duration corrected by beat-rate), % change from baseline (1 µM, 2h): 1.1±4.5%
Flat T-wave-like, number of observations/total well numbers (1 µM, 2h): 0/4
BR (beating rate), % change from baseline (1 µM, 24h): 6±1%
Beating below threshold, number of observations/total well numbers (1 µM, 24h): 0/4
Cessation of beating, number of observations/total well numbers (1 µM, 24h): 0/4
EAD, number of observations/total well numbers (1 µM, 24h): 0/4
FPD (field-potential duration), % change from baseline (1 µM, 24h): 13±11.4%
FPDc (field-potential duration corrected by beat-rate), % change from baseline (1 µM, 24h): 15.1±11.7%
Flat T-wave-like, number of observations/total well numbers (1 µM, 24h): 0/4
BR (beating rate), % change from baseline (1 µM, 48h): 0±2%
Beating below threshold, number of observations/total well numbers (1 µM, 48h): 0/4
Cessation of beating, number of observations/total well numbers (1 µM, 48h): 0/4
EAD, number of observations/total well numbers (1 µM, 48h): 0/4
FPD (field-potential duration), % change from baseline (1 µM, 48h): 12.6±11.7%
FPDc (field-potential duration corrected by beat-rate), % change from baseline (1 µM, 48h): 12.5±11.6%
Flat T-wave-like, number of observations/total well numbers (1 µM, 48h): 0/4
BR (beating rate), % change from baseline (1 µM, 72h): 0±5%
Beating below threshold, number of observations/total well numbers (1 µM, 72h): 0/4
Cessation of beating, number of observations/total well numbers (1 µM, 72h): 0/4
EAD, number of observations/total well numbers (1 µM, 72h): 0/4
FPD (field-potential duration), % change from baseline (1 µM, 72h): 8.9±8.5%
FPDc (field-potential duration corrected by beat-rate), % change from baseline (1 µM, 72h): 8.8±8.8%
Flat T-wave-like, number of observations/total well numbers (1 µM, 72h): 0/4
BR (beating rate), % change from baseline (1 µM, 96h): 2±3%
Beating below threshold, number of observations/total well numbers (1 µM, 96h): 0/4
Cessation of beating, number of observations/total well numbers (1 µM, 96h): 0/4
EAD, number of observations/total well numbers (1 µM, 96h): 0/4
FPD (field-potential duration), % change from baseline (1 µM, 96h): 9.2±9.9%
FPDc (field-potential duration corrected by beat-rate), % change from baseline (1 µM, 96h): 10.3±10.9%
Flat T-wave-like, number of observations/total well numbers (1 µM, 96h): 0/4
BR (beating rate), % change from baseline (3 µM, 72h): 6±4%
Beating below threshold, number of observations/total well numbers (3 µM, 72h): 0/5
Cessation of beating, number of observations/total well numbers (3 µM, 72h): 0/5
EAD, number of observations/total well numbers (3 µM, 72h): 0/5
FPD (field-potential duration), % change from baseline (3 µM, 72h): 1.7±4.6%
FPDc (field-potential duration corrected by beat-rate), % change from baseline (3 µM, 72h): 3.6±3.3%
Flat T-wave-like, number of observations/total well numbers (3 µM, 72h): 0/5
BR (beating rate), % change from baseline (3 µM, 96h): 14±5 %
Beating below threshold, number of observations/total well numbers (3 µM, 96h): 0/5
Cessation of beating, number of observations/total well numbers (3 µM, 96h): 0/5
EAD, number of observations/total well numbers (3 µM, 96h): 0/5
FPD (field-potential duration), % change from baseline (3 µM, 96h): -4.1±6.5%
FPDc (field-potential duration corrected by beat-rate), % change from baseline (3 µM, 96h): 0.1±7%
Flat T-wave-like, number of observations/total well numbers (3 µM, 96h): 0/5
BR (beating rate), % change from baseline (3 µM, 2h): 2±4%
Beating below threshold, number of observations/total well numbers (3 µM, 2h): 0/5
Cessation of beating, number of observations/total well numbers (3 µM, 2h): 0/5
EAD, number of observations/total well numbers (3 µM, 2h): 0/5
FPD (field-potential duration), % change from baseline (3 µM, 2h): 3.7±3.5%
FPDc (field-potential duration corrected by beat-rate), % change from baseline (3 µM, 2h): 4.4±2.3%
Flat T-wave-like, number of observations/total well numbers (3 µM, 2h): 0/5
BR (beating rate), % change from baseline (3 µM, 24h): 7±0%
Beating below threshold, number of observations/total well numbers (3 µM, 24h): 0/5
Cessation of beating, number of observations/total well numbers (3 µM, 24h): 0/5
EAD, number of observations/total well numbers (3 µM, 24h): 0/5
FPD (field-potential duration), % change from baseline (3 µM, 24h): 8.9±1.5%
FPDc (field-potential duration corrected by beat-rate), % change from baseline (3 µM, 24h): 11.3±1.4%
Flat T-wave-like, number of observations/total well numbers (3 µM, 24h): 0/5
BR (beating rate), % change from baseline (3 µM, 48h): 7±2%
Beating below threshold, number of observations/total well numbers (3 µM, 48h): 0/5
Cessation of beating, number of observations/total well numbers (3 µM, 48h): 0/5
EAD, number of observations/total well numbers (3 µM, 48h): 0/5
FPD (field-potential duration), % change from baseline (3 µM, 48h): 2.8±2.5%
FPDc (field-potential duration corrected by beat-rate), % change from baseline (3 µM, 48h): 4.9±2.3%
Flat T-wave-like, number of observations/total well numbers (3 µM, 48h): 0/5
BR (beating rate), % change from baseline (10 µM, 2h): 1±2%
Beating below threshold, number of observations/total well numbers (10 µM, 2h): 0/5
Cessation of beating, number of observations/total well numbers (10 µM, 2h): 0/5
EAD, number of observations/total well numbers (10 µM, 2h): 0/5
FPD (field-potential duration), % change from baseline (10 µM, 2h): 5.5±2.1%
FPDc (field-potential duration corrected by beat-rate), % change from baseline (10 µM, 2h): 6±2.3%
Flat T-wave-like, number of observations/total well numbers (10 µM, 2h): 0/5
BR (beating rate), % change from baseline (10 µM, 24h): 10±3%
Beating below threshold, number of observations/total well numbers (10 µM, 24h): 0/5
Cessation of beating, number of observations/total well numbers (10 µM, 24h): 0/5
EAD, number of observations/total well numbers (10 µM, 24h): 0/5
FPD (field-potential duration), % change from baseline (10 µM, 24h): 11.3±10%
FPDc (field-potential duration corrected by beat-rate), % change from baseline (10 µM, 24h): 15.1±11%
Flat T-wave-like, number of observations/total well numbers (10 µM, 24h): 0/5
BR (beating rate), % change from baseline (10 µM, 48h): 17±3%
Beating below threshold, number of observations/total well numbers (10 µM, 48h): 0/5
Cessation of beating, number of observations/total well numbers (10 µM, 48h): 0/5
EAD, number of observations/total well numbers (10 µM, 48h): 0/5
FPD (field-potential duration), % change from baseline (10 µM, 48h): -0.8±13.7%
FPDc (field-potential duration corrected by beat-rate), % change from baseline (10 µM, 48h): 4.7±14.8%
Flat T-wave-like, number of observations/total well numbers (10 µM, 48h): 1/5
BR (beating rate), % change from baseline (10 µM, 72h): 26±7 %
Beating below threshold, number of observations/total well numbers (10 µM, 72h): 0/5
Cessation of beating, number of observations/total well numbers (10 µM, 72h): 0/5
EAD, number of observations/total well numbers (10 µM, 72h): 0/5
FPD (field-potential duration), % change from baseline (10 µM, 72h): -10.2±17%
FPDc (field-potential duration corrected by beat-rate), % change from baseline (10 µM, 72h): -2.8±19.3%
Flat T-wave-like, number of observations/total well numbers (10 µM, 72h): 1/5
BR (beating rate), % change from baseline (10 µM, 96h): 48±6 %
Beating below threshold, number of observations/total well numbers (10 µM, 96h): 0/5
Cessation of beating, number of observations/total well numbers (10 µM, 96h): 0/5
EAD, number of observations/total well numbers (10 µM, 96h): 0/5
FPD (field-potential duration), % change from baseline (10 µM, 96h): -14.5±9.4%
FPDc (field-potential duration corrected by beat-rate), % change from baseline (10 µM, 96h): -2.5±12.4%
Flat T-wave-like, number of observations/total well numbers (10 µM, 96h): 2/5
prolongation of FPD / FPDc (all concentrations tested): did not induce a statistically significant prolongation of the FPD
